{"source": "patent US9040249B2", "about": "“Pan-kinase activation and evaluation of signaling pathways” (Beckman Coulter, Inc., priority 2008, dated 2015)", "key": {"[1]": {"system": "ribosomal S6 protein", "test": "Inhibition of S6 activation by LPS with ERK and PI3K inhibitors", "assay_type": "cell-based, human", "experimental": "(§1) 100 μl of blood was inserted into the bottom of 12×75 mm tubes. Blood was removed from the side of tube with cotton swab to eliminate potential contamination of the sample with unfixed cells. 100 ng lipopolysaccharide (LPS) was added to activation tubes (or equal volume of phosphate buffered saline (PBS) to control tubes) and the tubes were placed in 37° C. water bath.\n(§2) After various incubation times (e.g. 1 minute to 60 minutes), the first tube was removed from the incubator and 65 μl 10% formaldehyde was added into tube. The tubes were mixed and placed in a rack and incubated at room temperature. After exactly a 10 minute incubation with formaldehyde, 1 ml Lyse/Permeabilization Buffer ([…] TRITON X-100 10% stock solution to 500 ml with PBS. 0.1165% TRITON X-100 solution at room temperature in the dark and pre-heated to 37° C. immediately prior to use.) was added to each tube, vortexed vigorously and returned to the rack. The tubes were incubated at room temperature for 15 minutes.\n2 ml cold Wash Buffer (PBS (w/o Ca++/Mg++) with 4% FBS, sterile filtered (0.22 um filter)) (4° C.) was added to each tube. All tubes were centrifuged at 500×g for 4 minutes. […]\nAntibodies and cold Wash Buffer were added to a final volume of 100 μl and incubated at room temperature for 30 minutes. […] Cells were resuspended in 1 ml Wash Buffer, vortexed and analyzed on the flow cytometer. […]"}, "[2]": {"system": "ERK", "test": "LPS activation of MAPK signaling in whole blood monocytes, flow cytometry (P-ERK)", "assay_type": "cell-based, human", "experimental": "as §1, §2\n(§3) 2 ml cold Wash Buffer (PBS (w/o Ca++/Mg++) with 4% FBS, sterile filtered (0.22 um filter)) (4° C.) was added to each tube. All tubes were centrifuged at 500×g for 4 minutes. Tubes were removed from the centrifuge and supernate fluid was aspirated. 1 ml of cold (4° C.) 50% methanol was added to each tube and vortexed. All tubes were then incubated on ice for 10 minutes.\n(§4) The tubes were then centrifuged at 500×g for 4 minutes and the supernate fluid was aspirated. 2 ml cold Wash Buffer (4° C.) was added to each tube. All tubes were centrifuged at 500×g for 4 minutes. Tubes were removed from the centrifuge and supernate fluid was aspirated.\n(§5) Antibodies and cold Wash Buffer were added to a final volume of 100 μl and incubated at room temperature for 30 minutes. 2 ml cold Wash buffer was added, mixed and centrifuged. Cells were resuspended in 1 ml Wash Buffer, vortexed and analyzed on the flow cytometer.\n(§6) In this study, a simultaneous measurement of four different signaling phospho-epitopes, which include P-ERK, P-p38 MAP Kinase, P-SAPK (Stress-Activated Protein Kinase), and P-S6 ribosomal protein (a measurement of new polypeptide synthesis), was conducted. This assay employed a measurement of the time course of LPS activation, in both “naive” whole blood, and whole blood samples previously exposed to LPS activation (“re-activated”). This assay also employed the fixation and permeabilization approach described above to measure both cell surface (CD14 to identify monocytes) and cytoplasmic or nuclear localized phospho-epitopes (P-ERK, P-p38, P-SAPK, and P-S6). This assay also employed an internal negative control to analyzing the data, relying on populations, rather than isotype controls, and measuring changes in MFI (mean fluorescence intensity) rather than percent positive."}, "[3]": {"system": "p38 MAP Kinase", "test": "LPS activation of MAPK signaling in whole blood monocytes, flow cytometry (P-p38)", "assay_type": "cell-based, human", "experimental": "as §1, §2, §3, §4, §5, §6"}, "[4]": {"system": "SAPK/JNK", "test": "LPS activation of MAPK signaling in whole blood monocytes, flow cytometry (P-SAPK/JNK)", "assay_type": "cell-based, human", "experimental": "as §1, §2, §3, §4, §5, §6"}, "[5]": {"system": "ribosomal S6 protein", "test": "LPS activation of ribosomal S6 protein in whole blood monocytes, flow cytometry (P-S6)", "assay_type": "cell-based, human", "experimental": "as §1, §2, §3, §4, §5, §6"}, "[6]": {"system": "ERK", "details": "cited from earlier work"}, "[7]": {"details": "normal samples not previously exposed to LPS"}, "[8]": {"details": "normal whole blood, LPS 10 minutes at 37° C."}, "[9]": {"details": "re-stimulation after 60 minutes, up to 2 hours"}, "[10]": {"details": "previously LPS-stimulated, 0 time of re-exposure"}, "[11]": {"details": "up to 120 minutes post stimulation"}}, "note": "Values joined by “and” are separate entries in the source; they are usually repeats but may differ in a detail not shown here. Equal entries are not always repeated. “Also recorded” adds a separate entry of the source."}
{"molecule": "N#CC(=C(/N)Sc1ccccc1N)/C(C#N)=C(\\N)Sc1ccccc1N", "note": "[U0126]", "values": [{"measurement": "inhibition of S6 activation by LPS", "setting": "[1]; ERK inhibitor U0126 and PI3K inhibitor Ly294002 both present", "result": "inhibition of phosphorylation was seen; also recorded: Complete inhibition"}, {"measurement": "inhibition of S6 activation by LPS", "setting": "[1]; inhibitor alone", "result": "Only inhibition of both pathways leads to complete inhibition"}]}
{"molecule": "lipopolysaccharide [LPS]", "values": [{"measurement": "ERK pathway activity after 60 minutes of LPS activation", "setting": "[2]; 60 minutes", "result": "decreased, but do not return to baseline"}, {"measurement": "early P-ERK peak, time after LPS addition", "setting": "[2]; [7]", "result": "1 to 4", "unit": "min"}, {"measurement": "second P-ERK peak, time after LPS stimulation", "setting": "[2]; [7]", "result": "10 to 15", "unit": "min"}, {"measurement": "activated ERK in CD14+ monocytes", "setting": "[2]; [8]", "result": "all CD14+ monocytes have activated p-38, JNK, and ERK"}, {"measurement": "ERK activity when additional LPS is added", "setting": "[2]; [9]", "result": "no additional increase in any MAPK activity"}, {"measurement": "ERK activation six minutes after LPS activation", "setting": "[2]; six minutes, 37° C.", "result": "initial ERK activation declines"}, {"measurement": "MFI of P-ERK upon re-exposure to LPS", "setting": "[2]; up to 90 minutes after LPS re-stimulation, versus 0 time control", "result": "does not change significantly above the 0 time control"}, {"measurement": "earliest ERK activation, time following LPS stimulation", "setting": "[2]; whole blood monocytes, 37° C., before JNK or p38 activation", "result": 2, "unit": "min"}, {"measurement": "percentage of P-p38 positive monocytes", "setting": "[3]; 15 min after LPS re-exposure", "result": 46, "unit": "%"}, {"measurement": "aggregate MFI of P-p38", "setting": "[3]; 15 minutes after re-exposure to LPS", "result": 5.5}, {"measurement": "p38 pathway activity after 60 minutes of LPS activation", "setting": "[3]; 60 minutes", "result": "decreased, but do not return to baseline"}, {"measurement": "monocytes retaining the same P-p38 MFI as in the 15 min primary response", "setting": "[3]; 120 min after primary LPS stimulation", "result": "Roughly 50%"}, {"measurement": "monocyte population showing significant increase in P-p38 MFI", "setting": "[3]; after primary LPS stimulation", "result": "about 100%"}, {"measurement": "levels of P-p38 after primary LPS stimulation", "setting": "[3]; even after periods of 120 min", "result": "do not return to basal levels"}, {"measurement": "activated p38 in CD14+ monocytes", "setting": "[3]; [8]", "result": "all CD14+ monocytes have activated p-38, JNK, and ERK"}, {"measurement": "aggregate MFI of P-p38", "setting": "[3]; [10]", "result": 5.0}, {"measurement": "percentage of P-p38 positive monocytes", "setting": "[3]; [10]", "result": 40, "unit": "%"}, {"measurement": "time to maximal P-p38 MFI after LPS stimulation", "setting": "[3]; primary LPS stimulation", "result": 15, "unit": "min"}, {"measurement": "P-p38 MFI peak time after restimulation with LPS", "setting": "[3]; re-stimulation", "result": "15 to 20", "unit": "min"}, {"measurement": "p38 activity when additional LPS is added", "setting": "[3]; [9]", "result": "no additional increase in any MAPK activity"}, {"measurement": "JNK pathway activity after 60 minutes of LPS activation", "setting": "[4]; 60 minutes", "result": "decreased, but do not return to baseline"}, {"measurement": "time of P-SAPK peak after initial LPS stimulation", "setting": "[4]; initial stimulation", "result": 15, "unit": "min"}, {"measurement": "activated JNK in CD14+ monocytes", "setting": "[4]; [8]", "result": "all CD14+ monocytes have activated p-38, JNK, and ERK"}, {"measurement": "JNK activity when additional LPS is added", "setting": "[4]; [9]", "result": "no additional increase in any MAPK activity"}, {"measurement": "P-SAPK levels after initial LPS stimulation", "setting": "[4]; [11]", "result": "do not return to basal levels"}, {"measurement": "P-SAPK positive monocytes", "setting": "[4]; [11]", "result": "30-40%"}, {"measurement": "peak activation of S6 relative to other pathway proteins", "setting": "[5]; LPS stimulated monocytes", "result": "later than other MAPK pathway proteins"}, {"measurement": "time of P-S6 peak after LPS stimulation", "setting": "[5]; normal individuals, primary stimulation", "result": "15 to 30 min and 15 to 60 min"}, {"measurement": "persistence of P-S6 levels following LPS stimulation", "setting": "[5]; primary stimulation", "result": "> 120", "unit": "min"}, {"measurement": "MFI of the P-S6 population following LPS re-stimulation", "setting": "[5]; re-stimulation", "result": "little change in the MFI"}, {"measurement": "percent of monocytes expressing phospho-ERK after LPS treatment in vitro", "setting": "[6]; normal controls, 15 min after LPS addition, 35% without LPS", "result": 58, "unit": "%"}, {"measurement": "increase in P-ERK monocytes following LPS addition in vitro", "setting": "[6]; presumably septic patients, 25% before LPS", "result": "less than 10%"}]}
